Consider one compound from ChEMBL document CHEMBL4251606, “Design and characterization of α-lipoic acyl shikonin ester twin drugs as tubulin and PDK1 dual inhibitors” (Eur J Med Chem, 2018).

SMILES strings stand for the structures. Calls of active or inactive are those of the source. The rule behind the calls is not given here.

Experiment [1] deals with HeLa. The experiment in a line: Cell cycle arrest in human HeLa cells assessed as accumulation of cells at S phase at 2 uM after 24 hrs by propidium iodide staining-based FACScan flow cytometric analysis (reference value: 20.16%). The experiment is classed as functional. Background: A flow cytometer gives signals particle by particle.
Experiment [2] relates to HeLa. The experiment in a line: Induction of apoptosis in human HeLa cells assessed as necrotic cells at 1 uM after 24 hrs by Annexin V-APC/propidium iodide staining-based FACScan flow cytometric analysis (reference value: 1.18%). The class given is functional.
For experiment [3], the system named is HeLa. The experiment in a line: Induction of apoptosis in human HeLa cells assessed as late apoptotic cells at 2 uM after 24 hrs by Annexin V-APC/propidium iodide staining-based FACScan flow cytometric analysis (reference value: 7.22%). The experiment is classed as functional.
For experiment [4], the system named is HeLa. The experiment in a line: Induction of apoptosis in human HeLa cells assessed as late apoptotic cells at 6 uM after 36 hrs by Annexin V-APC/propidium iodide staining-based FACScan flow cytometric analysis (reference value: 3.84%). The class given is functional.
The test system of experiment [5] is HeLa. The experiment in a line: Antitumor activity against human HeLa cells xenografted in nude mouse assessed as increase in mouse survival at 2 mg/kg, ip administered once in every 2 days for 15 days relative to control. The experiment is classed as functional, organism-based. A general note: Xenograft models place foreign cells or tissue in a host animal.

With `CC(C)=CC[C@@H](OC(=O)CCCC[C@@H]1CCSC(c2ccccc2)S1)C1=CC(=O)c2c(O)ccc(O)c2C1=O` (stereo not given in full), the Activity in experiment [1] is given as 16.37%; in experiment [2], 4.46%; in experiment [3], 48.9%; in experiment [4] it was 22.9%. In experiment [5], the outcome was Active.
